Source: the NIST ThermoML archive (doi:10.1016/j.tca.2013.03.018)
± gives the expanded uncertainty stated by the source.

Settings: Liquid, DSC

CCCCCCCCO [octan-1-ol]
Settings | vapor or sublimation pressure [kPa]
333.69 K | 0.2242 ± 0.022
333.97 K | 0.2242 ± 0.022
334.46 K | 0.2376 ± 0.024
341.76 K | 0.3855 ± 0.039
342.1 K | 0.3855 ± 0.039
343.33 K | 0.372 ± 0.037
344.5 K | 0.3855 ± 0.039
348.2 K | 0.5736 ± 0.057
348.72 K | 0.587 ± 0.059
349.1 K | 0.6004 ± 0.06
349.38 K | 0.587 ± 0.059
352.09 K | 0.7483 ± 0.075
352.98 K | 0.802 ± 0.08
353.96 K | 0.8087 ± 0.081
354.96 K | 0.7886 ± 0.079
357.9 K | 1.071 ± 0.11
357.94 K | 1.057 ± 0.11
357.99 K | 1.057 ± 0.11
358.41 K | 1.071 ± 0.11
362.88 K | 1.434 ± 0.14
363.3 K | 1.447 ± 0.14
363.51 K | 1.46 ± 0.15
364.35 K | 1.474 ± 0.15
369.69 K | 2.105 ± 0.21
369.76 K | 2.092 ± 0.21
369.9 K | 2.132 ± 0.21
370 K | 2.132 ± 0.21
379.04 K | 3.436 ± 0.34
379.35 K | 3.489 ± 0.35
379.45 K | 3.489 ± 0.35
379.49 K | 3.489 ± 0.35
387.2 K | 5.169 ± 0.52
387.28 K | 5.156 ± 0.52
387.87 K | 5.182 ± 0.52
387.92 K | 5.169 ± 0.52
407.24 K | 13.57 ± 1.4
408.44 K | 13.58 ± 1.4
408.9 K | 13.55 ± 1.4
409.3 K | 13.55 ± 1.4
435.48 K | 40.47 ± 4
438.31 K | 40.53 ± 4.1
438.58 K | 40.53 ± 4.1
438.8 K | 40.53 ± 4.1
468.15 K | 101.4 ± 10
468.47 K | 101.4 ± 10
